The source of these data is US20210308028A1, “Compositions and Methods for Maintaining and Protecting Tissue Integrity and Barrier Function” (Colgate-Palmolive Company, priority 2020, published 2021).

Where a name gives a salt, the structure may show the parent alone.

The subject of data set [1] is P. gingivalis collagenase. Nature of the data set: Proteolytic assay: collagen DQ degradation by P. gingivalis culture supernatant. The settings on record: Example 6, FIGS. 35, 38, 41; over 5 hours. Format: biochemical, Porphyromonas gingivalis. On the procedure:
To determine the effects of formulations tested on the proteinase activity of P. gingivalis, a 48-h culture was centrifuged at 10 000×g for 10 min. […] The fluorescence corresponding to collagen degradation was monitored using a Synergy 2 microplate reader, with the excitation and emission wavelengths set at 495 nm and 525 nm, respectively. Test compounds or the fluorescent substrate alone were used as controls. For the proteolytic assay, the following ratio was used: 40% P. gingivalis supernatant+40% test compounds+20% DQ collagen. […]
To determine the effects of the Dual Zinc plus Arginine aqueous solution and dentifrice on the proteinase activity of P. gingivalis, a 48-h culture was centrifuged at 10 000×g for 10 min. Assay mixtures containing equal volumes of P. gingivalis culture supernatant, the fluorescent substrate collagen DQ™ (100 μg/mL; Molecular Probes, Eugene, Oreg., USA), and the Dual Zinc […] The fluorescence corresponding to collagen degradation was monitored using a Synergy 2 microplate reader, with the excitation and emission wavelengths set at 495 nm and 525 nm, respectively. Test compounds or the fluorescent substrate alone were used as controls. Leupeptin (1 μM) was used as a positive inhibitory control.

For data set [2], the system named is gingival keratinocyte barrier. The settings on record: previously reported; cited from earlier work.
The test system of data set [3] is intestinal epithelial barrier. Particulars: Sarkar 2019; in vivo (mouse) and in vitro models; cited from earlier work.
Data set [4] concerns in vitro oral mucosa model. Particulars: Rybakovsky 2017; cited from earlier work.
The test system of data set [5] is Mattek Epigingival tissues. Nature of the data set: TER of Epigingival tissues upon sodium lauryl sulfate (SLS) challenge. It counts as cell-based, human. The source says: Cell junctions are intercellular pathways that selectively permit the movement of molecules through cellular layers. In terms of biological function, cell junctions form a barrier between apical and basolateral cell surfaces and are crucial in the development and function of epithelial tissues. The ion permeability of cell junctions can be measured through a voltmeter in the form of Trans Epithelial Electric Resistance (TER). Measurements are quickly determined through an electrode with little to no disturbance to the cell layers. The resistance correlates to the integrity of the tissue, and confluent tissue layers with intact cell junctions lead to higher TER readings.
Epigingival tissues were purchased from Mattek Corporation for use in the experiment. These multilayered epithelial cells imitate human gingival tissue in-vivo and can withstand high concentrations of toothpaste solutions. Once the tissues arrived in the laboratory, individual tissues were reconstituted in 1 mL of Mattek provided GIN-100 maintenance medium overnight at 37° C. and 5% CO2 before testing of samples. The medium was changed every day after treatment.
TER measurement experiment was performed comparing the neat active ingredients in solution and their effects on the physical integrity of Mattek Epigingival tissues. […]

Data set [6] concerns intestinal mucosal barrier. Particulars: reported; cited from earlier work.
Data set [7] deals with B11 gingival keratinocytes treated with TNF-α. Description: FITC-dextran paracellular transport with TNF-α challenge. It counts as cell-based, human. The settings on record: TNF-α 100 ng/ml, 48-h exposure. The method, then:
The ability of test composition samples to enhance epithelial barrier integrity was assessed by monitoring the paracellular transport of FITC-conjugated 4.4-kDa dextran (FD-4; Sigma-Aldrich Canada Ltd.) across the keratinocyte layer. Briefly, B11 cells were cultured on Transwell filters, and FD-4 ([…] in culture medium) was added in the apical compartment in the presence of the test composition under investigation. Fluorescence in the basolateral compartment was measured at 0, 4, 8, 24, and 48 h using a Synergy 2 microplate reader (BioTek Instrument, Winooski, Vt., USA).
(§1) Assays exposed cells to either TNFα only or TNFα+test composition. TNFα is known to cause tissue damage. A stock solution of recombinant TNF-α is prepared in sterile distilled water at 100 μg/ml. Thereafter, dilutions are made in keratinocyte culture medium. First dilution is 1/1000 to obtain 100 ng/ml. TNF-α and the test compounds are added simultaneously.
Gingival keratinocytes were cultured in the apical chamber of Transwell™ inserts as described above. Immediately after adding fluorescein isothiocyanate-conjugated dextran of 4.4 kDa (FD-4; 1 mg/ml in culture medium) to the apical compartment, the formulations under investigation were added in presence of recombinant TNF-α (100 ng/ml). Fluorescence in the basolateral compartment was recorded after 0, 2, 6, 24, and 48 h of incubation using a Synergy 2 microplate reader (BioTek Instruments; Winooski, Vt., USA).

For data set [8] the test system is unchanged. Nature of the data set: TER with TNF-α challenge. It counts as cell-based, human. Particulars: TNF-α 100 ng/ml. The method, then: Tight junction integrity was assessed by determining the trans-epithelial electrical resistance (TER). B11 gingival keratinocytes were seeded onto Costar™ Transwell™ clear polyester membrane inserts (6.5-mm diameter; 0.4-μm pore size; Corning Co., Cambridge, Mass., USA) at 3×10^5 cells per insert. The basolateral and apical compartments were filled with 0.6 mL and 0.1 mL of complete K-SFM, respectively. Following a 72-h incubation, the conditioned medium was replaced with antibiotic-free K-SFM, and the cells were incubated for a further 16 h. The TER values were measured using an Ohm/voltmeter (EVOM2; World Precision Instruments, Sarasota, Fla., USA) at 0, 4, 8, 24, 48, and 72 h. Resistance values were calculated in Ohms (Ω)/cm 2 by multiplying the resistance values by the filter surface area. Results were expressed as percentage of the basal control values measured at time 0 h (100% values) for each condition.
as §1
Keratinocyte barrier integrity was determined by monitoring transepithelial electrical resistance (TER). Briefly, keratinocytes (3×10^5 cells per insert; 0.1 ml) were seeded in the apical compartment of Costar™ Transwell™ clear polyester membrane inserts (6.5 mm in diameter, 0.4 μm pore size; Corning Co., Cambridge, Mass., USA), while the basolateral compartment was filled with 0.6 ml of culture medium. After 72-h of incubation, the conditioned culture medium was replaced with fresh antibiotic-free K-SFM, and the cells were further incubated for 16 h prior treating the cells. Recombinant human TNF-α (100 ng/ml; AnaSpec, Fremont, USA) and the formulations (final dilutions of 1/500, 1/1000, and 1/2000 (v/v for the aqueous solution; w/v for the dentifrice) under investigation were added to the apical compartment. The TER values were monitored using an ohm/voltmeter (EVOM^2; World Precision Instruments, Sarasota, Fla., USA) after 0, 6, 24, and 48 h of incubation. The TER values in Ohms (Ω)/cm^2 were determined by multiplying the resistance values by the surface area of the membrane filter. Results are expressed as the percentage of the basal control value measured at time 0-h (100% value).

Data set [9] deals with gingival keratinocytes. Nature of the data set: Keratinocyte proliferation (CellTracker Green CMFDA). Format: cell-based, human. The settings on record: TNF-α 100 ng/ml.
Description: Gingival keratinocytes were seeded into wells (20,000 cells per well) of a 96-well microplate (0.1 ml/well) and incubated overnight at 37° C. in a 5% CO2 atmosphere to allow cell adhesion. The culture medium was then removed, and the cells were treated or not with TNF-α (100 ng/ml) with or without the formulations under investigation for 72 h at 37° C. in a 5% CO2 atmosphere. Cell proliferation was measured using the fluorescent CellTracker™ Green CMFDA (5-chloromethylfluorescein diacetate) Dye according to the manufacturer's instructions (Thermo Fisher Scientific). Untreated control cells were assigned a value of 100%. Briefly, after 24 h of stimulation, the supernatant was removed and the cells were washed with PBS. […] Fluorescent keratinocytes were also visualized using an inverted Olympus FS X100 fluorescent microscope.
In data set [10] the test system is gingival keratinocytes. Description: MTT colorimetric cell viability assay. Format: cell-based, human. The method, then:
The tight junction integrity of the B11 gingival keratinocytes was assessed by determining the transepithelial electrical resistance (TER). Briefly, B11 keratinocytes were seeded onto Costar™ Transwell™ clear polyester membrane inserts (6.5-mm diameter; 0.4-μm pore size; Corning Co., Cambridge, Mass., USA) at 3×10^5 cells per insert. The basolateral and apical compartments were filled with 0.6 mL and 0.1 mL of complete K-SFM, respectively, and the cultures were incubated for 3 days at 37° C. in a 5% CO2 atmosphere. The conditioned medium was then replaced with fresh antibiotic-free K-SFM. Following a further incubation (16 h), the TER values were measured using an Ohm/voltmeter (EVOM2; World Precision Instruments, Sarasota, Fla., USA) at 0, 2, 6, 24, and 48 h. Resistance values were calculated in Ohms (Ω)/cm^2 by multiplying the resistance values by the filter surface area. Results were expressed as a percentage of the basal control values measured at time 0 h (100% values) for each condition. […] The effect of these treatments on cell viability was assessed using an MTT (3-[4,5-[…]-2-yl]-2,5diphenyltetrazolim bromide) colorimetric assay, according to the manufacturer's instructions (Roche Diagnostics, Laval, QC, Canada).

Turning to `CC(=O)N[C@@H](CC(C)C)C(=O)N[C@@H](CC(C)C)C(=O)N[C@H](C=O)CCCNC(=N)N` [Leupeptin, reference compound], the “inhibition of P. gingivalis collagenase activity” value in data set [1] is reported as “inhibited P. gingivalis collagenase activity”.

On to theaflavins, for which, in [2], the “protection of gingival keratinocyte barrier against TNF-α-induced damage” value (shortened to “protection … against TNF-α-induced damage”) is “prevented epithelial barrier disruption”.

On to epigallocatechin-3-gallate, for which the “protection … against TNF-α-induced damage” value in data set [2] is listed as “prevented epithelial barrier disruption”.

For the molecule `[Zn]` [zinc], the “protection of intestinal epithelial barrier from Shigella flexneri” value in data set [3] is listed as “allows protection of the intestinal epithelial barrier from damage mediated by the pathogen Shigella flexneri”. Also, in data set [4], the “epithelial barrier function (transepithelial electrical resistance)” value was “improve epithelial barrier function”.

As to `N=C(N)NCCC[C@H](N)C(=O)O` [Arginine, arginine], the “effect on SLS-induced increase in tissue permeability (TER ratio)” value in [5] (tissues treated 3x over 3 days, then 0.5% SLS for 2 minutes, FIGS. 1-4) was “minimal effect”. The “intestinal mucosal barrier functions” value in data set [6] is “improve the intestinal mucosal barrier functions”.

Regarding TNF-α, the “increase of FD-4 transport by TNF-α” value in data set [7] is on record as 50.8%. Also, the figures for the “decrease of TER by TNF-α” value in data set [8] (6 h), in [8] (24 h) and in data set [8] (48 h) were 25.8%, 49.3% and 85.1%, respectively. Further, in the data set on gingival keratinocytes [9], the “reduction of cell proliferation by TNF-α” value is on record as 30.2%. Further, in the data set on gingival keratinocytes [10], the “viability of gingival keratinocytes (MTT)” value is “no significant loss of cell viability”.

For the molecule `Nc1nc(N)nc(-c2cc(Cl)ccc2Cl)n1` [irsogladine maleate], the “protection … against TNF-α-induced damage” value in [2] is on record as “reversed the TNF-α-induced disruption of the gingival epithelial barrier”.

In the case of `CCCCCCCCCCCCOS(=O)(=O)[O-].[Na+]` [SLS, Sodium Lauryl Sulfate, reference compound], in data set [5] (0.5% SLS solution for 2 minutes), the “tissue permeability after SLS treatment” value was “increase in tissue permeability”.
